According to PMC11904221 (EMBO Molecular Medicine, 2025):
Values after ≈ are worked out from the molar mass of the structure shown. Like-named read-outs stand apart in the source and are kept apart here. Where a SMILES comes first, the peptide text is derived from it.

Experiments:
[1] = Pharmacokinetic profile in mice, LC/MS; format: in vivo, mouse; conditions: mouse, iv, 100 mg/kg
Experimental: Pharmacokinetic profile of APLN-DM in mice
The aim of the current study was to evaluate pharmacokinetic properties of APLN-DM peptide administrated intravenously (IV) or intraperitoneously (IP) in Balb/C mice. […]
for the IP group). Development of quantification method was performed using liquid chromatography coupled to mass spectrometry (LC/MS).
Results: Samples obtained in vivo were analyzed according to quantification-developed method and the peptide was detectable until 15 minutes after administration. Analysis allowed determining that APLN-DM […]
All animals were divided to three groups of 27 animals, one of 12 animals and one of 3 animals (vehicle) and will receive the corresponding test item according to Table 1. Each animal was weighed and administered at the appropriate volume.
Concentration ROA Blood Individual animal numbers
Group No. Treatment Dose Collect
Table 11 - Group allocation
Development of analytic method
Standard range from 0.5 to 100 µM was prepared and analysed for each fragmented ion as previously […]
Standard curves obtained for each ion are represented in Figure 6.
Figure 8: Standard curves obtained by quantification of each fragmented ion The best linearity was obtained by quantifying the fragmented ion 785 (z=5).
Quantification of APLN-DM in samples
Summary of analytical method development:
Quantification method was performed according to previous work. In summary, samples were analysed with a LC-MS triple quadripole system (ESI QqQ). The chromatographic system was a UPLC activity (Waters) coupled to a mass spectrometer TSQ Quantum Ultra (Thermo) equipped with triple quadripole analyser and electrospray ionisation (ESI) system. The selected column was Kinetex F5 […] 50x2.1 mm (Phenomenex). The analysis was made by quantifying fragmented ion z=5 (m/z=785) in samples compared […]
quantitation was previously determined to be 0.5 µM. Samples were analysed after protein precipitation as […]
In vivo phase samples analysis
As the stability of peptide is low, even in frozen plasma, it was decided to re-run the in vivo phase for the highest dose and to use freshly prepared samples.
26 samples were used for analysis.
Only samples taken 5 and 10 minutes after peptide administration presented detectable concentrations (see
Table 9). While 15 min results were on the level of accuracy (linearity threshold values). At a later time […]
estimated based on the 5 and 10 min measurements.
Sample ID Area Calculated amount

[2] = mouse, in vivo, ip
Experimental: A single intraperitoneal injection on day 1 was followed by a 14-day observation period. Parameters monitored included mortality, morbidity, clinical signs, and body weight. At the study’s end, gross pathology and organ necropsy were conducted. […] Evaluations encompassed clinical observations, body weight, food consumption, hematology, blood chemistry, gross pathology, selected organ necropsy, and weight, and histopathology examinations. Comprehensive study details are in Appendix pharmacological studies-1 and -2. […]
was assessed in the present study.
Methods: 4 groups (5 males and 5 females per group) were assigned for this study. In each gender, reference item control groups (1F+1M) received the reference item (Saline Solution, NaCl 0,9%) and 3 treated groups […]
4F+4M) mg/kg. All animals were IP dosed and followed daily for 2 weeks (5 days a week). During the study, mortality and general clinical observation, body weight, food consumption, hematology, blood chemistry, gross pathology, selected organ necropsy and weight and histopathology examination of control and high dose groups […]
dosing of five female and five male mice (Table 1 and Table 2). The choice of the number and the gender of the animals were based on OECD guidelines.
Study variables and end points […]
Observations for signs of morbidity and mortality were performed daily. […] The time of death was recorded as precisely as possible. […]

[3] = mouse
[4] = for microsomal CLint: liver microsomes
[5] = pH 7.4, aqueous buffer
in vitro [6] = assay: in vitro
in vitro [7] = assay: in vitro; remark: listed apart in the source

CSCC[C@H](NC(=O)[C@@H]1CCCN1C(=O)CNC(=O)[C@H](CCCCN)NC(=O)[C@H](Cc1c[nH]cn1)NC(=O)[C@H](CO)NC(=O)[C@H](CC(C)C)NC(=O)[C@H](CCCNC(=N)N)NC(=O)[C@@H]1CCCN1C(=O)[C@H](CCCNC(=N)N)NC(=O)[C@H](CCC(N)=O)NC(=O)[C@H](CO)NC(=O)[C@H](CO)NC(=O)[C@H](Cc1ccccc1)NC(=O)[C@H](CCCCN)NC(=O)[C@H](CO)NC(=O)[C@H](CO)NC(=O)CNC(=O)CNC(=O)[C@H](CCC(N)=O)NC(=O)[C@H](Cc1c[nH]c2ccccc12)NC(=O)[C@@H]1CCCN1C(=O)CNC(=O)[C@@H]1CCCN1C(=O)CNC(=O)[C@H](CC(N)=O)NC(=O)[C@H](CCCNC(=N)N)NC(=O)[C@H](CO)NC(=O)CNC(=O)[C@H](CCCNC(=N)N)NC(=O)[C@@H]1CCCN1C(=O)[C@H](CCC(N)=O)NC(=O)[C@@H](NC(=O)[C@@H](N)CC(C)C)C(C)C)C(=O)N1CCC[C@H]1C(=O)N[C@@H](Cc1ccccc1)C(=O)O [APLN-DM] (H-LVQPRGSRNGPGPWQGGSSKFSSQRPRLSHKGPMPF-OH)
level at time molar at 5 min ([1]; Balb/C, plasma, group 2F, 100 mg/kg IV, 5 min, samples 1-3, no unit printed (standards in µM), read-out: Calculated amount in plasma sample): 0.793 µM
level at time molar at 10 min ([1]; Balb/C, plasma, group 2F, 100 mg/kg IV, 10 min, samples 1-3, read-out: Calculated amount in plasma sample): 658 nM
half-life ([1]; female, Balb/C mice plasma, LC/MS, estimated from the 5 and 10 min samples, read-out: half-life in vivo in mice): ~0.333 h
MTD repeated administrations / highest tested dose found safe [2]: 300 mg/kg/day
Half-life, 1st [3]: 0.645 h
Half-life, 2nd [3]: 1.867 h
half-life ([3]; liver microsomes): > 1 h
microsomal CLint ([3]; liver microsomes): < 116 µL/min/mg
clearance category [4]: high
Half-life, 1st ([4]; human): 1.24 h
Half-life, 2nd ([4]; human): 1.14 h
Half-life, Mean ([4]; human): > 1 h
microsomal CLint ([4]; human): < 116 µL/min/mg
microsomal CLint [4]: < 116 µL/min/mg
solubility thermodynamic [5]: 187 µM (≈ 734 µg/mL)
% Protein bound, 1st (in vitro [6]): 56.8%
% Protein bound, 2nd (in vitro [6]): 52.2%
% Recovery, 1st (in vitro [6]): 123%
% Recovery, 2nd (in vitro [6]): 125%
% Recovery, Mean (in vitro [6]): 124%
fraction unbound at 4 h, 1e-05 M (in vitro [6]; human, plasma): 0.46
% Protein bound, 1st (in vitro [7]): 26.1%
% Protein bound, 2nd (in vitro [7]): 26.9%
% Recovery, Mean (in vitro [7]): 93%
fraction unbound at 4 h, 1e-05 M (in vitro [7]; CD-1, mouse, plasma): 0.74
